In patent publication US20170306385A1, “METHODS FOR DISCOVERING THERAPEUTICS THAT ALTER THE STABILITY OF TARGET PROTEINS” (Dana-Farber Cancer Institute, Inc., priority 2014, published 2017):
Where a SMILES comes first, the peptide text is derived from it. The star is where a group is joined. Cbz = O=C(OCc1ccccc1)*

Columns and labels:
Type in all cases: cell-based
fusion protein = assay: Western blot confirmation of fusion protein reduction by HSP90 inhibitors
[1] = system: MYC-luciferase fusion protein; assay: Stability time course for 7 MYC-luciferase fusion cell lines, fused (tagged) luciferase; details: for increase in MYC-luciferase fusion protein: all 7 cell lines
Experimental: (§1) Seven cell lines were used to measure the half life of the luciferases after blocking all protein synthesis with cyclohexamide. The decay observed for both fused luciferases (MYC-firefly and MYC-nanoluc; FIG. 12B) were compared to the decay observed for the unfused luciferases (renilla and firefly; FIG. 12A) using both the MYC-firefly:renilla and MYC-nanoluc:firefly cell lines 293T, U2OS and the MYC-firefly:renilla cell lines A549, H1299 and LS174T. […] MYC nanoluc half life of approximately 2 hours is longer than MYC-firefly half-life of less than 1 hour and closer to the half-life of untagged firefly. The balanced half-life of MYC-nanoluc and untagged firefly should reduce the number of artefact hits.
(§2) Seven MYC-luciferase reporter cell lines were used to measure changes in MYC-luciferase expression after blocking the proteasome with MG132. The expression of the unfussed renilla and firefly were unchanged for about 6 hours but decreased after 18 hours to a variable extent among cell lines (FIG. 13B).
(§3) Seven MYC-luciferase reporter cell lines were used to measure changes in MYC-luciferase expression after inhibition of ubiquitin dependent proteolysis with the neddylation inhibitor MLN-4924 (FIG. 14A-B).

[2] = system: unfused luciferases (renilla and firefly); assay: Stability time course for 7 MYC-luciferase fusion cell lines, unfused (untagged) luciferase
Experimental: as §1, §2, §3

SMILES: COc1c(C)cnc(Cn2cnc3c(Cl)nc(N)nc32)c1C [BIIB021]
- knockdown of protein levels by western blot (fusion protein): confirmed

SMILES: CC(C)C[C@@H](C=O)NC(=O)[C@H](CC(C)C)NC(=O)[C@H](CC(C)C)NC(=O)OCc1ccccc1 [MG132] (Cbz-Leu-Leu-Leu-aldehyde)
- increase in luciferase signals of MYC-nanoluc ([1]; MYC-nanoluc cell lines, MG132): about 4 fold
- increase in MYC-luciferase fusion protein ([1]; proteasome blocked with MG132, different time course): ≥ 50%
- expression of unfused renilla and firefly ([2]; MG132, after 18 hours, variable extent among cell lines): decreased
- expression of unfused renilla and firefly ([2]; MG132, for about 6 hours): unchanged

SMILES: NS(=O)(=O)OC[C@@H]1C[C@@H](n2ccc3c(N[C@H]4CCc5ccccc54)ncnc32)C[C@@H]1O [MLN-4924]
- increase in MYC-luciferase fusion protein ([1]; MLN-4924, typically peaking after 6 hours of treatment): ≥ 50%
- expression of unfused renilla and firefly ([2]; MLN-4924, except for the 293T MYC-firefly:renilla cell line): minimally affected

SMILES: CC1(C)CC(=O)c2c(C(F)(F)F)nn(-c3ccc(C(N)=O)c(N[C@H]4CC[C@H](OC(=O)CN)CC4)c3)c2C1 [PF-04929113]
- knockdown of protein levels by western blot (fusion protein): confirmed
